ChEMBL document CHEMBL1128798, “The in vitro cytotoxicity and DNA alkylating ability of the simplest functional analogues of the seco CC-1065 alkylating subunit” (Bioorg Med Chem Lett, 1995)

Tests used:
HeLa = assay: Tested in vitro for cytotoxicity against He La cell line in human cervical carcinoma; assay type: functional
MM96L = assay: Tested in vitro for cytotoxicity against MM96L cell line in human melanoma; assay type: functional
B16 [1] = assay: Tested in vitro for cytotoxicity against B16 cell line in murine melanoma; assay type: functional, Mus musculus
B16 [2] = assay: Tested in vitro for cytotoxicity against B16 cell line in murine melanoma activity expressed in IC50; assay type: functional, cell-based; settings: Mus musculus
CI80-13S cell line = assay: Tested in vitro for cytotoxicity against CI80-13S cell line in DNA cross-linking resistant human ovarian carcinoma; assay type: functional
Nucleic Acid = assay: Compound was tested in vitro for DNA alkylation intensity; value is given as; assay type: functional
MM418 = assay: Tested in vitro for cytotoxicity against MM418c15a cell line in human melanoma with high melanin content; assay type: functional

| SMILES | Cytotoxicity (HeLa) [µM] | Cytotoxicity (MM96L) [µM] | Cytotoxicity (B16 [1]) [µM] | IC50 (B16 [2]) [µM] | Cytotoxicity (CI80-13S cell line) [µM] | DNA alkylation (Nucleic Acid) | Cytotoxicity (MM418) [µM] |
| --- | --- | --- | --- | --- | --- | --- | --- |
| COc1ccc(CCCl)cc1 | 670 | 1970 |  |  |  |  |  |
| OCCc1ccc(O)cc1 [TYROSOL] | 1420 | 905 |  |  |  |  |  |
| COc1ccc(CCI)cc1 | 22 | 25 |  |  |  |  |  |
| Oc1ccc(CCBr)cc1 | 18 | 16 | 44 | 32 | 27 | value is given as | 25 |
| COc1ccc(CCBr)cc1 | 220 | 520 |  |  |  |  |  |
| Oc1ccc(CCI)cc1 | 33 | 43 |  |  |  | value is given as |  |
| Oc1cccc(CCCl)c1 | 450 | 450 |  |  |  |  |  |
| CS(C)(=O)=O [DIMETHYL SULFONE] | 35 | 56 |  |  | 59 |  | 58 |
| Oc1cccc(CCI)c1 | 19 | 20 |  |  |  |  |  |
| OCCc1cccc(O)c1 | 7530 | 2530 |  |  |  |  |  |
| Oc1ccc(CCCl)cc1 | 32 | 42 |  |  |  |  |  |
| Oc1cccc(CCBr)c1 | 75 | 60 |  |  |  |  |  |
| COc1ccc(CCO)cc1 | 4420 | 3330 |  |  |  |  |  |
